Test results from patent US20240245677A1, “SELECTED COMPOUNDS FOR TARGETED DEGRADATION OF BRD9” (C4 THERAPEUTICS, INC., priority 2021, published 2024).

Experiments:
[1] = Crystallization under nitrogen flow by fast evaporation; assay type: physicochemical
Method: Based on approximate solubility results, about 10 mg of Compound 1 free form Pattern E was dissolved in suitable amount of solvents. […] Solid residues were examined for their polymorphic form.

[2] = Crystallization at room temperature by slow evaporation; assay type: physicochemical
Method: Based on approximate solubility results, about 10 mg of Compound 1 free form Pattern E was dissolved in suitable amount of solvents. Obtained suspensions or solutions were centrifuged. […] Solid residues were examined for their polymorphic form.

[3] = target: T1, GSPT1 (Homo sapiens, UniProt P15170+Q96SW2); test: GSPT1 HiBiT degradation assay in HEK293T.114 cells; assay type: cell-based; details: 6 hours
T1 construct: CRISPR-edited to endogenously express HiBiT tagged GSPT1; host or cells: HEK293T.114
T1 sequence (P15170 whole entry): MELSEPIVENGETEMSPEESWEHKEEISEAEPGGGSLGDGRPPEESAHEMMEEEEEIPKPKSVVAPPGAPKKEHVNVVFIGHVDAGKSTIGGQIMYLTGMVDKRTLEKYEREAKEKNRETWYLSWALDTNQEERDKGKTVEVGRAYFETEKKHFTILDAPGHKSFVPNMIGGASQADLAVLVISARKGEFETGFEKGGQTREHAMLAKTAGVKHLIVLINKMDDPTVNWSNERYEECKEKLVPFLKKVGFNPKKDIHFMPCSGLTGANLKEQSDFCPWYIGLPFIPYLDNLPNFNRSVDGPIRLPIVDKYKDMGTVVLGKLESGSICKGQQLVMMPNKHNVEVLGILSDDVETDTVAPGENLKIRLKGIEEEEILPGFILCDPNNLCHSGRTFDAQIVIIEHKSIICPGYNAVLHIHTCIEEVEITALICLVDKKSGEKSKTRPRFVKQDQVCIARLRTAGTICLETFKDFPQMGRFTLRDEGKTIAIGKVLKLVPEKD
T1 sequence (Q96SW2 whole entry): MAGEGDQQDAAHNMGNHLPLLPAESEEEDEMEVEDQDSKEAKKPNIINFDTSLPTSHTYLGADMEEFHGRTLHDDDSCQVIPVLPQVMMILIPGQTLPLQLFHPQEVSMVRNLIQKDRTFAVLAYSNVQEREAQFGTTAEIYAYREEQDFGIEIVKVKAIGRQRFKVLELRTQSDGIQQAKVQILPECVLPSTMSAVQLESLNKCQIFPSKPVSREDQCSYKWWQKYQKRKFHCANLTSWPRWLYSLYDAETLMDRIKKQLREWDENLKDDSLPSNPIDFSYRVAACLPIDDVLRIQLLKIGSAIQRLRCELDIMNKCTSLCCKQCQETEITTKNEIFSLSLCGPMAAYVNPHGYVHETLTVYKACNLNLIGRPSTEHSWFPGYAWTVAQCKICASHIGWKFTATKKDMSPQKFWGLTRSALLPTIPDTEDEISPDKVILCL
T1 sequence (Q16531 2-1140 partner limits assumed): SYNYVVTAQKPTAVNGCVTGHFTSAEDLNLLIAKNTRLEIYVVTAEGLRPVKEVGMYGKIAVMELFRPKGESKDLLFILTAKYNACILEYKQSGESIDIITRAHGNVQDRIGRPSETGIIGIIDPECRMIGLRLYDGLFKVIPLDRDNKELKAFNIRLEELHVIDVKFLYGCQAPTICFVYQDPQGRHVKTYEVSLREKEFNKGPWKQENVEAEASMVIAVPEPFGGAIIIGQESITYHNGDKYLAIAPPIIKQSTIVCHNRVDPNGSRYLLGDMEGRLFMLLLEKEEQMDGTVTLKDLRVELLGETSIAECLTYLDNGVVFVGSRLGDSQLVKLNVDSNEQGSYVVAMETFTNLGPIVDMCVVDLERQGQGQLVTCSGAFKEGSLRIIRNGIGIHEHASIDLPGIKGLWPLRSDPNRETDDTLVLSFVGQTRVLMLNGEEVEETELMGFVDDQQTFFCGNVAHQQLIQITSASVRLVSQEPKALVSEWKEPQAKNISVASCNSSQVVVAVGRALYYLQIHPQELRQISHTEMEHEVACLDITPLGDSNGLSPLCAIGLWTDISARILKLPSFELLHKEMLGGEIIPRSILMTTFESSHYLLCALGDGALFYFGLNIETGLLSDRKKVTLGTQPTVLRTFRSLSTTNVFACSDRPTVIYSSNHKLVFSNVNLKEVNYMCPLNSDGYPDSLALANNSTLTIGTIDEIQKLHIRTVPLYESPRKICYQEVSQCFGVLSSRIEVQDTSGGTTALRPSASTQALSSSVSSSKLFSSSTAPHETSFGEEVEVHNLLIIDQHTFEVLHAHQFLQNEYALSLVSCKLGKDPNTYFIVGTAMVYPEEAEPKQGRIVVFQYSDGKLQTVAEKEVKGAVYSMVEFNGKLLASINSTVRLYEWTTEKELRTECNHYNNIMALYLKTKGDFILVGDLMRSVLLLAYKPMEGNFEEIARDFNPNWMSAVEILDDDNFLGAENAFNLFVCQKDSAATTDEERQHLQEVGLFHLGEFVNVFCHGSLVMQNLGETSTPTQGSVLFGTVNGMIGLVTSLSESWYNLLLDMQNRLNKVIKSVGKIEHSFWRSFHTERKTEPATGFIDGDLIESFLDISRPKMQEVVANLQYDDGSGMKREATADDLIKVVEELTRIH
Excerpt: This assay evaluated the off-target degradation of the cereblon neosubstrate, Eukaryotic peptide chain release factor GTP-binding subunit ERF3A (GSPT1), induced by treatment with Compound 1 as measured by luminescence using Nano-Glo HiBiT® Lytic Assay System in 293T cells CRISPR-edited to endogenously express HiBiT tagged GSPT1.
Nano-Glo® HiBiT Lytic Assay System was purchased from Promega (Catalog No. N3050, Madison, WI, USA). HEK293T cells were obtained from ATCC (Catalog No. CRL-3216, Manassas, VA, USA), and maintained in DMEM medium (Catalog No. 11995065, ThermoFischer Scientific, Waltham, MA, USA) supplemented with 10% heat inactivated FBS (Catalog No. 16000-044, Gibco, Grand Island, NY, USA) at 37° C. in an atmosphere of 5% CO2 in air. The HiBiT polypeptide tag was introduced into the N-terminus of the endogenous GSPT1 locus by CRISPR-Cas9 to produce the HEK293T.114 modified cell line. The HiBiT polypeptide allows reconstitution of NanoBiT enzyme following cell lysis and addition of the complementing LgBiT polypeptide that activates substrate to produce a luminescent signal that is directly proportional to the amount of HiBiT-tagged GSPT1.
HEK293T.114 cells were routinely sub-cultured to maintain cell density between 30-80% confluence, not to exceed 20 passages. Cells were washed with PBS, trypsinized for 5 minutes at 37° C., and resuspended in fresh growth media without phenol red. An aliquot was diluted 2× with Trypan Blue solution 0.4% (Catalog No. 15250061, ThermoFisher Scientific, Waltham, MA, USA) and cell count determined. Cell concentration was adjusted with growth media without phenol red to 2×10^5 cells/mL.
The 10 mM DMSO stock solutions of Compound 1 or CC0885 were serially diluted (half log) in DMSO to generate 11-point dose series (10000, 3160, 1000, 316, 100, 31.6, 10, 3.2, 1, 0.32, 0.1 μM) in an acoustic ready 384-well low dead volume microplate (Catalog No. LP-0200, Beckman Coulter Life Sciences, Indianapolis, IN, USA). Using an Echo 550 Acoustic Liquid Handler (Beckman Coulter Life Sciences, Indianapolis, IN, USA), 30 nL of serially diluted compound solutions were dispensed in duplicate to each 384-well black TC-treated microplate (Catalog No. 3571, Corning, Glendale, CA, USA). 30 nL DMSO was transferred to all control wells.
30 μL of HEK293T.114 cells suspended in growth media without phenol red at 2×10^5 cells/mL (6000 cells/well) were dispensed using a Multidrop Combi Reagent Dispenser (Catalog No. 5840300, ThermoFisher Scientific, Waltham, MA, USA) to each well of columns 1-23 of 384-well black TC-treated microplates containing duplicate concentration range of test compounds and DMSO controls. 30 μL of media was dispensed to column 24 as background positive control (P). Plates were spun briefly at 1000 rpm and cells were incubated at 37° C., 5% CO2 for 6 hours. Final concentration of DMSO was 0.1% for all samples.
Cellular GSPT1 protein level was determined based on quantification of HiBiT using Nano-Glo® HiBiT Lytic Assay System (Promega). 30 μL Nano-Glo Lytic Assay reagents were added to each well of columns 1-23 and luminescence was acquired on EnVision® Multilabel Reader (Catalog No. 2104-0010, Perkin Elmer Inc., Dumfries, VA, USA). Column 24 (cells without Nano-Glo reagent addition) was used as plate background or positive control (P). Cells treated in the absence of the test compound (0.1% DMSO vehicle) were the negative control (N)/
Percent response of compound-treated samples (T) were calculated by normalizing to the DMSO treated negative (N) controls on the same microtiter plate after background (i.e., positive control) signal subtraction:
Curve fit and DC50 (concentration that degrades 50% GSPT1) determination was performed by 4 parametric logistic fit analysis using software such as GraphPad Prism software (GraphPad Software, LLC, San Diego, CA, USA). […]

In the case of COc1cc(-c2cn(C)c(=O)c(C)c2C)cc(OC)c1CN1CC[C@H](N2CCN(c3ccc(N[C@H]4CCC(=O)NC4=O)cc3F)CC2)C(F)(F)C1 [Compound 1, (S)-3-((4-(4-((S)-1-(2,6-dimethoxy-4-(1,4,5-trimethyl-6-oxo-1,6-dihydropyridin-3-yl)benzyl)-3,3-difluoropiperidin-4-yl)piperazin-1-yl)-3-fluorophenyl)amino)-piperidine-2,6-dione], the Comments ([1]; fast evaporation under nitrogen flow, 1,4-dioxane) is reported as “Gel-like sample”, the Comments ([1]; fast evaporation under nitrogen flow, 2-MeTHF) is reported as “Gel-like sample” and the Comments ([1]; fast evaporation under nitrogen flow, Acetone) is reported as “Gel-like sample”. The XRPD ([1]; fast evaporation under nitrogen flow, Acetonitrile) was “Pattern B”, the Comments ([1]; fast evaporation under nitrogen flow, DCM) was “Gel-like sample” and the Comments ([1]; fast evaporation under nitrogen flow, Ethanol) was “Gel-like sample”. The Comments ([1]; fast evaporation under nitrogen flow, Ethyl acetate) was “Gel-like sample”, the Comments ([1]; fast evaporation under nitrogen flow, THF) was “Gel-like sample” and the Comments ([2]; slow evaporation at room temperature, 1,4-dioxane) was “Gel-like sample”. The Comments ([2]; slow evaporation at room temperature, 2-MeTHF) was “Gel-like sample”, the XRPD ([2]; slow evaporation at room temperature, Acetonitrile) was “Pattern A” and the Comments ([2]; slow evaporation at room temperature, Ethanol) was “Gel-like sample”. For the same molecule, the XRPD ([2]; slow evaporation at room temperature, Ethyl acetate) was “Pattern F”, the Comments ([2]; slow evaporation at room temperature, THF) was “Jelly-like sample” and the “% GSPT1 Remaining, Mean” value ([3]; 0.100 nM) was 97.4%. For the same molecule, the “% GSPT1 Remaining, Mean” value ([3]; 0.316 nM) was 86.7%, the “% GSPT1 Remaining, Mean” value ([3]; 1.00 nM) was 70.8% and the “% GSPT1 Remaining, Mean” value ([3]; 3.15 nM) was 34.4%. The “% GSPT1 Remaining, Mean” value ([3]; 10.0 nM) was 12.4%, the “% GSPT1 Remaining, Mean” value ([3]; 31.5 nM) was 6.0% and the “% GSPT1 Remaining, Mean” value ([3]; 100 nM) was 4.0%. The “% GSPT1 Remaining, Mean” value ([3]; 317 nM) was 3.5%, the “% GSPT1 Remaining, Mean” value ([3]; 1000 nM) was 3.2% and the “% GSPT1 Remaining, Mean” value ([3]; 3161 nM) was 3.0%. For the same molecule, the “% GSPT1 Remaining, Mean” value ([3]; 9990 nM) was 3.8%, the DC50 ([3]; GSPT1-HiBiT, HEK293T.114 cells, read-out: Geometric Mean DC50) was greater than 10 µM and the Emax ([3]; GSPT1-HiBiT, HEK293T.114 cells, read-out: Mean Emax (%) ± SD) was 93.9 ± 5.85%. The “effect on degradation of GSPT1” value ([3]; concentrations up to 10 μM) was “no significant effect”.
